According to patent publication US20210346663A1, “METHODS FOR IMPROVING DRUG EFFICACY” (Nuvaira, Inc., priority 2012, published 2021):

Assay: Pulmonary function after vagus nerve disruption followed by drug administration in patients with obstructive lung disease
Format: in vivo
Details: drug given after nerve activity-modulating treatment
From the text: For two treatments with similar mechanisms of action (e.g., vagus nerve disruption that eliminates or reduces acetylcholine production and pharmacological inhibition of acetylcholine production or release), one would expect that the combination of such treatments would result in less of an improvement than the combination of two treatments with different/complementary mechanisms of action.

Question: Which “effect on lung functions of administration after vagus nerve disruption” value does the source give for `CC(C)[N+]1(C)[C@@H]2CC[C@H]1C[C@@H](OC(=O)C(CO)c1ccccc1)C2` (stereo partly shown) [ipratropium bromide] here?
Answer: additive effect
